Laboratory results taken from patent publication US8318769B2, “Substituted sulfonamide compounds” (Gruenethal GmbH, priority 2008, dated 2012).
Read-outs that look alike come from different tables or passages of the source.

Key:
[1] = biological target: T1, human bradykinin 1 receptor (B1R) (Homo sapiens, UniProt P46663); experiment: FLIPR Ca2+ assay, B1R antagonism, human; format: cell-based
T1 construct: expressed in transfected cells
T1 sequence (P46663 1-353): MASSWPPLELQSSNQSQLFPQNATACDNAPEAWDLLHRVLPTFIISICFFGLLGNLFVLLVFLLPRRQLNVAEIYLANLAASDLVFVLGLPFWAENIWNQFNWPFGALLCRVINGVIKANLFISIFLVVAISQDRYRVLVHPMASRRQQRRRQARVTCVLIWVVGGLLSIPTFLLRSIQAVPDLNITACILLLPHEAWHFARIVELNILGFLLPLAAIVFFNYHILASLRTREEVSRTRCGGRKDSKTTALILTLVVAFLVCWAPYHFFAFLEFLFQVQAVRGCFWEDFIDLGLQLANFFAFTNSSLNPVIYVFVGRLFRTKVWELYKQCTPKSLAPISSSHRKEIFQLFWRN
Method in brief: (§1)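 Antagonism is given as % of maximum achievable suppression of agonist-evoked Ca2+ influx, measured by Fluo-4 peak fluorescence in FLIPR. Stable hB1R or rB1R CHO K1 lines received 10 μM compound for 10-20 min before EC80 Lys-Des-Arg9-bradykinin (human) or Des-Arg9-bradykinin (rat).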

[2] = biological target: T2, bradykinin 1 receptor (B1R) of the rat (Rattus norvegicus, UniProt P97583); experiment: FLIPR Ca2+ assay, B1R antagonism, rat; format: cell-based
T2 construct: expressed in transfected cells
T2 sequence (P97583 1-337): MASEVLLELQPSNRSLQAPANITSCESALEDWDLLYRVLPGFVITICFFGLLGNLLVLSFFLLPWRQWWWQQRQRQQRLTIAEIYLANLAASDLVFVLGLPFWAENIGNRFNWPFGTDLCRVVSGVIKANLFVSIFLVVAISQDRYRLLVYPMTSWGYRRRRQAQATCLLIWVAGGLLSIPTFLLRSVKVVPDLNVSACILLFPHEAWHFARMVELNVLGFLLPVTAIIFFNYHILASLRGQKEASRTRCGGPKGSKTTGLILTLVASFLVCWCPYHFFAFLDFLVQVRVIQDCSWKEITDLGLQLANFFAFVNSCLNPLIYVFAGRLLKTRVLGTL
Method in brief: as §1

[3] = 10 μM test substance, CHO K1 cells with human B1R gene (hB1R cells), Lys-Des-Arg9-bradykinin at EC80, % inhibition compared with the maximum achievable inhibition, read-out: B1R antagonism, human [10 μM] % inhibition
[4] = CHO-K1, 10 μM test substance, CHO K1 cells with rat B1R gene (rB1R cells), Des-Arg9-bradykinin at EC80, % inhibition compared with the maximum achievable inhibition, read-out: B1R antagonism, rat [10 μM] % inhibition

| SMILES | inhibition at 10 µM [1, 3] [%] | inhibition at 10 µM [2, 4] [%] | inhibition at 10 µM ([1]; CHO-K1, read-out: B1R antagonism, human [10 μM] % inhibition) [%] | inhibition at 10 µM ([2]; CHO-K1, read-out: B1R antagonism, rat [10 μM] % inhibition) [%] |
| --- | --- | --- | --- | --- |
| COc1cc(C)c(S(=O)(=O)N2CCCC[C@H]2COCC(=O)N2CCC(OCCN3CCCC3)(c3cccc(C(F)(F)F)c3)CC2)c(C)c1 [Example 54, 2-[[(2S)-1-[(4-methoxy-2,6-dimethyl-phenyl)sulfonyl]-piperidin-2-yl]-methoxy]-1-[4-(2-pyrrolidin-1-yl-ethoxy)-4-[3-(trifluoromethyl)phenyl]-piperidin-1-yl]-ethanone] | 99 | 96 | – | – |
| COc1cc(C)c(S(=O)(=O)N2CCCCC2COCCC(=O)N2CCC(OCCN3CCCC3)(c3cccnc3)CC2)c(C)c1 (stereo not shown) [Example 119, 3-[[1-[(4-methoxy-2,6-dimethyl-phenyl)sulfonyl]-piperidin-2-yl]-methoxy]-1-[4-pyridin-3-yl-4-(2-pyrrolidin-1-yl-ethoxy)-piperidin-1-yl]-propan-1-one] | 100 | 102 | – | – |
| O=C(CC(NS(=O)(=O)c1ccc2ccccc2c1)c1ccccc1)N1CCC(OCCN2CCCCC2)(c2cccnc2)CC1 (stereo not shown) [Example 11, N-(3-oxo-1-phenyl-3-(4-(2-(piperidin-1-yl)ethoxy)-4-(pyridin-3-yl)piperidin-1-yl)propyl)naphthalene-2-sulfonamide] | 103 | 52 | – | – |
| O=C(COCC1CCc2ccccc2N1S(=O)(=O)c1ccc(Cl)c(Cl)c1)N1CCC(OCCN2CCCCC2)(c2cccnc2)CC1 (stereo not shown) [Example 16, 2-((1-(3,4-dichlorophenylsulfonyl)-1,2,3,4-tetrahydroquinolin-2-yl)methoxy)-1-(4-(2-(piperidin-1-yl)ethoxy)-4-(pyridin-3-yl)piperidin-1-yl)ethanone] | 103 | 87 | – | – |
| COc1cc(C)c(S(=O)(=O)N2CCCCC2COCC(=O)N2CCC(OCCN3CCCC3)(c3ccncc3)CC2)c(C)c1 (stereo not shown) [Example 84, 2-[[1-[(4-methoxy-2,6-dimethyl-phenyl)sulfonyl]-piperidin-2-yl]-methoxy]-1-[4-pyridin-4-yl-4-(2-pyrrolidin-1-yl-ethoxy)-piperidin-1-yl]-ethanone] | 100 | 103 | – | – |
| COc1cc(C)c(S(=O)(=O)N(C)CCOCC(=O)N2CCC(OCCCN3CCN(C)CC3)(c3cccnc3)CC2)c(C)c1 [Example 34, 4-methoxy-N,2,6-trimethyl-N-(2-(2-(4-(3-(4-methylpiperazin-1-yl)propoxy)-4-(pyridin-3-yl)piperidin-1-yl)-2-oxoethoxy)ethyl)benzenesulfonamide] | 99 | 100 | – | – |
| O=C(COCCN(C(c1ccccc1)c1ccccc1)S(=O)(=O)c1ccc(Cl)cc1Cl)N1CCC(OCCN2CCCC2)(c2cccnc2)CC1 [Example 4, N-benzhydryl-2,4-dichloro-N-(2-(2-oxo-2-(4-(pyridin-3-yl)-4-(2-(pyrrolidin-1-yl)ethoxy)piperidin-1-yl)ethoxy)ethyl)benzenesulfonamide] | – | – | 99 | 98 |
| CN1CCN(CCOC2(c3cccnc3)CCN(C(=O)COCC3CCc4ccccc4N3S(=O)(=O)c3ccc(Cl)c(Cl)c3)CC2)CC1 (stereo not shown) [Example 38, 2-((1-(3,4-dichlorophenylsulfonyl)-1,2,3,4-tetrahydroquinolin-2-yl)methoxy)-1-(4-(2-(4-methylpiperazin-1-yl)ethoxy)-4-(pyridin-3-yl)piperidin-1-yl)ethanone] | 74 | 98 | – | – |
| CN1CCN(CCCOC2(c3cccnc3)CCN(C(=O)CC(NS(=O)(=O)c3ccc4ccccc4c3)c3ccccc3)CC2)CC1 (stereo not shown) [Example 39, N-(3-(4-(3-(4-methylpiperazin-1-yl)propoxy)-4-(pyridin-3-yl)piperidin-1-yl)-3-oxo-1-phenylpropyl)naphthalene-2-sulfonamide] | 50 | 98 | – | – |
| COc1cc(C)c(S(=O)(=O)N2c3ccccc3CCC2COCC(=O)N2CCC(OCCN3CCCC3)(c3cccnc3)CC2)c(C)c1 (stereo not shown) [Example 101, 2-[[1-[(4-methoxy-2,6-dimethyl-phenyl)sulfonyl]-1,2,3,4-tetrahydro-quinolin-2-yl]-methoxy]-1-[4-pyridin-3-yl-4-(2-pyrrolidin-1-yl-ethoxy)-piperidin-1-yl]-ethanone] | 100 | 102 | – | – |
| COc1cc(C)c(S(=O)(=O)N2c3ccccc3OCC2COCC(=O)N2CCC(OCCN3CCCC3)(c3cccnc3)CC2)c(C)c1 (stereo not shown) [Example 106, 2-[[4-[(4-methoxy-2,6-dimethyl-phenyl)sulfonyl]-3,4-dihydro-2H-[1,4]benzoxazin-3-yl]-methoxy]-1-[4-pyridin-3-yl-4-(2-pyrrolidin-1-yl-ethoxy)-piperidin-1-yl]-ethanone] | 100 | 101 | – | – |
| O=C(COCC1CCc2ccccc2N1S(=O)(=O)c1ccc(Cl)c(Cl)c1)N1CCC(OCCN2CCCC2)(c2cccnc2)CC1 (stereo not shown) [Example 24, 2-((1-(3,4-dichlorophenylsulfonyl)-1,2,3,4-tetrahydroquinolin-2-yl)methoxy)-1-(4-(pyridin-3-yl)-4-(2-(pyrrolidin-1-yl)ethoxy)piperidin-1-yl)ethanone] | 69 | 101 | – | – |
| COc1cc(C)c(S(=O)(=O)N2c3ccccc3OCC2COCC(=O)N2CCC(OCCN3CCCC3)(c3cccc(F)c3)CC2)c(C)c1 (stereo not shown) [Example 107, 1-[4-(3-fluorophenyl)-4-(2-pyrrolidin-1-yl-ethoxy)-piperidin-1-yl]-2-[[4-[(4-methoxy-2,6-dimethyl-phenyl)sulfonyl]-3,4-dihydro-2H-[1,4]benzoxazin-3-yl]-methoxy]-ethanone] | 98 | 97 | – | – |
| COc1cc(C)c(S(=O)(=O)N(C)CCOCC(=O)N2CCC(OCCN3CCCCC3)(c3cccnc3)CC2)c(C)c1 [Example 15, 4-methoxy-N,2,6-trimethyl-N-(2-(2-oxo-2-(4-(2-(piperidin-1-yl)ethoxy)-4-(pyridin-3-yl)piperidin-1-yl)ethoxy)ethyl)-benzenesulfonamide] | 104 | 102 | – | – |
| COc1cc(C)c(S(=O)(=O)N2CCCCC2COCC(=O)N2CCC(OCCCN3CCCC3)(c3cccnc3)CC2)c(C)c1 (stereo not shown) [Example 40, 2-((1-(4-methoxy-2,6-dimethylphenylsulfonyl)piperidin-2-yl)methoxy)-1-(4-(pyridin-3-yl)-4-(3-(pyrrolidin-1-yl)propoxy)piperidin-1-yl)ethanone] | 99 | 102 | – | – |
| Cc1cc(S(=O)(=O)N2CCCCC2CCC(=O)N2CCC(OCCN3CCCCC3)(c3cccnc3)CC2)c(C)cc1Cl (stereo not shown) [Example 13, 3-(1-(4-chloro-2,5-dimethylphenylsulfonyl)piperidin-2-yl)-1-(4-(2-(piperidin-1-yl)ethoxy)-4-(pyridin-3-yl)piperidin-1-yl)propan-1-one] | 101 | 50 | – | – |
| COc1cc(C)c(S(=O)(=O)N2CCCCC2COCC(=O)N2CCC(OCCN3CCCC3)(c3cccc(F)c3)CC2)c(C)c1 (stereo not shown) [Example 83, 1-[4-(3-fluorophenyl)-4-(2-pyrrolidin-1-yl-ethoxy)-piperidin-1-yl]-2-[[1-[(4-methoxy-2,6-dimethyl-phenyl)sulfonyl]-piperidin-2-yl]-methoxy]-ethanone] | 100 | 99 | – | – |
| COc1cc(C)c(S(=O)(=O)N2CCCCC2CCCC(=O)N2CCC(OCCN3CCCC3)(c3ccncc3)CC2)c(C)c1 (stereo not shown) [Example 90, 4-[1-[(4-methoxy-2,6-dimethyl-phenyl)sulfonyl]-piperidin-2-yl]-1-[4-pyridin-4-yl-4-(2-pyrrolidin-1-yl-ethoxy)-piperidin-1-yl]-butan-1-one] | 100 | 102 | – | – |
| COc1cc(C)c(S(=O)(=O)N(C)CCOCC(=O)N2CCC(OCCN3CCCC3)(c3cccc(F)c3)CC2)c(C)c1 [Example 81, N-[2-[2-[4-(3-fluorophenyl)-4-(2-pyrrolidin-1-yl-ethoxy)-piperidin-1-yl]-2-oxo-ethoxy]-ethyl]-4-methoxy-N,2,6-trimethyl-benzenesulfonic acid amide] | 100 | 97 | – | – |
| Cc1cc(S(=O)(=O)N2CCCCC2CCC(=O)N2CCC(OCCCN3CCN(C)CC3)(c3cccnc3)CC2)c(C)cc1Cl (stereo not shown) [Example 36, 3-(1-(4-chloro-2,5-dimethylphenylsulfonyl)piperidin-2-yl)-1-(4-(3-(4-methylpiperazin-1-yl)propoxy)-4-(pyridin-3-yl)piperidin-1-yl)propan-1-one] | 85 | 93 | – | – |
